Results from ChEMBL document CHEMBL4665908, “Estrogen Receptor Degrading PROTACS for the Treatment of Breast Cancer” (ACS Med Chem Lett, 2020).

Each compound was assayed against T1, Estrogen receptor (Homo sapiens, UniProt P03372) (assay: Displacement of fluorescent ligand from human recombinant GST-tagged ER-alpha ligand binding domain (307 to 554 residues) incubated for 15 mins by TR-FRET based competitive assay).
T1 sequence (P03372 whole entry): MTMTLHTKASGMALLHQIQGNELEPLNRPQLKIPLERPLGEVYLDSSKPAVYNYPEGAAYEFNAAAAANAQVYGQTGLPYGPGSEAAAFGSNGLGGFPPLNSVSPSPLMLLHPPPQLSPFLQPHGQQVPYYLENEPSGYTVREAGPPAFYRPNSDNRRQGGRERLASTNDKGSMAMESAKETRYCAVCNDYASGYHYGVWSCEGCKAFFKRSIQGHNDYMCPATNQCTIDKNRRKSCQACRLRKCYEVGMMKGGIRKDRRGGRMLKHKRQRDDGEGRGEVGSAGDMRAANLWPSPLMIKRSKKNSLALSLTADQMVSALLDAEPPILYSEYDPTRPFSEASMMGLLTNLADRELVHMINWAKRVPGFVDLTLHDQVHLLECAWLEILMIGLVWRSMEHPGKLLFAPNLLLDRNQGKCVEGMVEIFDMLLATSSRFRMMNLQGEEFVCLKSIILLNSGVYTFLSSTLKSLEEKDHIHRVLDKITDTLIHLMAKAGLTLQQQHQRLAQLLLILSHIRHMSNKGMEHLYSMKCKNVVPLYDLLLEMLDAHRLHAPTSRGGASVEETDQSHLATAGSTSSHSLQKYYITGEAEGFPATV

Row | IC50 | SMILES
1 | 1.9 nM | C[C@@H]1Cc2c([nH]c3ccccc23)[C@@H](c2cnc(N3CCC4(CC3)CC(CN3CC5(CCN(c6ccc7c(c6)CN(C6CCC(=O)NC6=O)C7=O)CC5)C3)C4)nc2)N1CC(C)(C)F (stereo partly drawn)

Each compound was assayed against Protein cereblon/Estrogen receptor (Homo sapiens, UniProt P03372+Q96SW2) (assay: Protac activity at CRBN/ERalpha in human MCF7 cells assessed as induction of ERalpha protein degradation incubated for 8 to 22 hrs by immunofluorescence assay).
Format: cell-based

Chain of Protein cereblon/Estrogen receptor (Q96SW2 whole entry, one chain of several): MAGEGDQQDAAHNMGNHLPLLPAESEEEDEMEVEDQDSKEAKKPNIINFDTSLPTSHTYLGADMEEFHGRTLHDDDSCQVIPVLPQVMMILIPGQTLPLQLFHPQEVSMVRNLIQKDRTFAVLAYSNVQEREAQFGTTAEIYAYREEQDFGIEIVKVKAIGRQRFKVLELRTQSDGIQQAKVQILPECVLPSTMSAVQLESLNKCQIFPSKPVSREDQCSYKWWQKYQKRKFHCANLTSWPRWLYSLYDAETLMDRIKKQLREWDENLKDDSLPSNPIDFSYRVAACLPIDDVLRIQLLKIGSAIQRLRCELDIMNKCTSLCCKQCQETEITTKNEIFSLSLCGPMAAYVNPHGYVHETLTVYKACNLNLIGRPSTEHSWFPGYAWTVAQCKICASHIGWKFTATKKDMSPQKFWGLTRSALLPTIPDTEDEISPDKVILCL

Row | IC50 | SMILES
2 | 0.4 nM | COc1cc(N2CCN(CCC3CCN(c4ncc([C@@H]5c6[nH]c7ccccc7c6C[C@@H](C)N5CC(C)(C)F)cn4)CC3)CC2)cc2c1C(=O)N(C1CCC(=O)NC1=O)C2 (stereo partly drawn)
3 | 0.4 nM | C[C@@H]1Cc2c([nH]c3ccccc23)[C@@H](c2cnc(N3CCC4(CC3)CC(CN3CC5(CCN(c6ccc7c(c6)CN(C6CCC(=O)NC6=O)C7=O)CC5)C3)C4)nc2)N1CC(C)(C)F (stereo partly drawn)
4 | 0.6 nM | C[C@@H]1Cc2c([nH]c3ccccc23)[C@@H](c2cnc(N3CCC(CN4CCN(CC5CCN(c6ccc7c(c6)CN(C6CCC(=O)NC6=O)C7=O)CC5)CC4)CC3)nc2)N1CC(C)(C)F (stereo partly drawn)
5 | 0.8 nM | C[C@@H]1Cc2c([nH]c3ccccc23)[C@@H](c2cnc(N3CCC4(CCN(CCC5CCN(c6ccc7c(c6)CN(C6CCC(=O)NC6=O)C7=O)CC5)CC4)CC3)nc2)N1CC(C)(C)F (stereo partly drawn)
6 | 0.4 nM | C[C@@H]1Cc2c([nH]c3ccccc23)[C@@H](c2cnc(OC3CCC4(CC3)CCN(CC3CCN(c5ccc6c(c5)CN(C5CCC(=O)NC5=O)C6=O)CC3)CC4)nc2)N1CC(C)(C)F (stereo partly drawn)
7 | 0.4 nM | C[C@@H]1Cc2c([nH]c3ccccc23)[C@@H](c2cnc(N3CCC(CCN4CCC5(CC4)CCN(c4ccc6c(c4)CN(C4CCC(=O)NC4=O)C6=O)CC5)CC3)nc2)N1CC(C)(C)F (stereo partly drawn)
8 | 0.5 nM | C[C@@H]1Cc2c([nH]c3ccccc23)[C@@H](c2cnc(N3CCC(CCN4CCN(c5ccc6c(c5)CN(C5CCC(=O)NC5=O)C6=O)CC4)CC3)nc2)N1CC(C)(C)F (stereo partly drawn)
9 | 0.5 nM | C[C@@H]1Cc2c([nH]c3ccccc23)[C@@H](c2cnc(N3CCC(OCCN4CCN(c5ccc6c(c5)CN(C5CCC(=O)NC5=O)C6=O)CC4)CC3)nc2)N1CC(C)(C)F (stereo partly drawn)
10 | 0.7 nM | COc1cc(N2CCN(CC3CCN(c4ncc([C@@H]5c6[nH]c7ccccc7c6C[C@@H](C)N5CC(C)(C)F)cn4)CC3)CC2)cc2c1C(=O)N(C1CCC(=O)NC1=O)C2 (stereo partly drawn)
11 | 0.6 nM | C[C@@H]1Cc2c([nH]c3ccccc23)[C@@H](c2c(F)cc(OCCCCCN3CCN(c4ccc5c(c4)CN(C4CCC(=O)NC4=O)C5=O)CC3)cc2F)N1CC(C)(C)F (stereo partly drawn)
12 | 0.5 nM | C[C@@H]1Cc2c([nH]c3ccccc23)[C@@H](c2cnc(N3CCC(CCN4CCOC5(CC4)CCN(c4ccc6c(c4)CN(C4CCC(=O)NC4=O)C6=O)CC5)CC3)nc2)N1CC(C)(C)F (stereo partly drawn)
13 | 0.4 nM | C[C@@H]1Cc2c([nH]c3ccccc23)[C@@H](c2cnc(N3CCC(CN4CCOC5(CC4)CCN(c4ccc6c(c4)CN(C4CCC(=O)NC4=O)C6=O)CC5)CC3)nc2)N1CC(C)(C)F (stereo partly drawn)
